In ChEMBL document CHEMBL3351222, “Novel multi-targeting anthra[2,3-b]thiophene-5,10-diones with guanidine-containing side chains: interaction with telomeric G-quadruplex, inhibition of telomerase and topoisomerase I and cytotoxic properties” (Eur J Med Chem, 2014):
pIC50: −log10 of the molar value. The source made the active and inactive calls. No cut-off for these calls is given here.

Columns and labels:
Homo sapiens [1] = species on record: Homo sapiens; assay: Binding affinity to human telomeric G-quadruplex TelQ22-DA DNA assessed as change in melting temperature by FRET assay
Homo sapiens [2] = species on record: Homo sapiens; assay: Binding affinity to human telomeric G-quadruplex TelQ22-DA DNA at 65 degC by FRET melting assay
Homo sapiens [3] = species on record: Homo sapiens; assay: Binding affinity to human telomeric G-quadruplex TelQ24 (5'-d(TTAGGG)4)-3') DNA at 25 degC by fluorescent intercalator displacement assay
[4] = target: T1, Telomerase reverse transcriptase (Homo sapiens, UniProt O14746); assay: Inhibition of human telomerase transfected in human HEK293T cells assessed as DNA extension using 5'-d(AATCCGTCGAGCAGAGTT)-3' substrate; type: cell-based; settings: hek-293t
[5] = target: T1, Telomerase reverse transcriptase; assay: Inhibition of human telomerase transfected in human HEK293T cells assessed as DNA extension using 5'-d(AATCCGTCGAGCAGAGTT)-3' substrate by Real-time quantitative telomeric repeat amplification protocol; type: cell-based; settings: hek-293t
[6] = target: T2, DNA topoisomerase 1 (Homo sapiens) (UniProt P11387); assay: Inhibition of topoisomerase 1 (unknown origin)-mediated relaxation of supercoiled pBR322 at 1 uM after 30 mins by agarose gel electrophoresis
T2 sequence (whole entry): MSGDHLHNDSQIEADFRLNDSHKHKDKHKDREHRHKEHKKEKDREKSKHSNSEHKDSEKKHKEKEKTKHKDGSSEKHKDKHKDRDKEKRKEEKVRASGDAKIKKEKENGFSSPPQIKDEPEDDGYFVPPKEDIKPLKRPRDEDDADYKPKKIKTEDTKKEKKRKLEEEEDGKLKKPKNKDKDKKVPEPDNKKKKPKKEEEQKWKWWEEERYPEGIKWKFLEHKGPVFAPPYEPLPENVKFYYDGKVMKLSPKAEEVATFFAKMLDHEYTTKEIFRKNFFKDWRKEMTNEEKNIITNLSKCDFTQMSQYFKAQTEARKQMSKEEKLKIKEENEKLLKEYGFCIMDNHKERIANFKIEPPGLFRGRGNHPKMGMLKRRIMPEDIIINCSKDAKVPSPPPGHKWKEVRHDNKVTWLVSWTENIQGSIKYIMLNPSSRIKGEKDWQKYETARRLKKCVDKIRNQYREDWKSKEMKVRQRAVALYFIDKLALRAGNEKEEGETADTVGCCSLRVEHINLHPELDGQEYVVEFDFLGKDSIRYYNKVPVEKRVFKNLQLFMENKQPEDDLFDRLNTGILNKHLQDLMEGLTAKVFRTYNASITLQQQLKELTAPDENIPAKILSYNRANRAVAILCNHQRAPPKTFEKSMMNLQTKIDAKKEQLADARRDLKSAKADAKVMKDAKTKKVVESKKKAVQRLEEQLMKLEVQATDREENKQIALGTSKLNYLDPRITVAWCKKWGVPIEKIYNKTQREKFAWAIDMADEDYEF

L1210 [7] = assay: Cytotoxicity against mouse L1210 cells after 48 hrs by trypan blue assay; type: functional, cell-based; settings: L1210, 48 h
CCRF-CEM = assay: Cytotoxicity against human CEM cells after 48 hrs by trypan blue assay; type: functional, cell-based
L1210 [8] = assay: Drug uptake in mouse L1210 cells at 1 uM after 15 mins; type: ADME, cell-based; settings: l1210, 0.25 h
L1210 [9] = assay: Drug uptake in mouse L1210 cells at 1 uM after 3 hrs; type: ADME, cell-based; settings: l1210, 3 h
Homo sapiens [10] = species on record: Homo sapiens; assay: Binding affinity to human telomeric G-quadruplex TelQ22-DA DNA assessed as interaction with compound at 25 degC by isothermal titration calorimetry

T1 sequence (O14746 whole entry): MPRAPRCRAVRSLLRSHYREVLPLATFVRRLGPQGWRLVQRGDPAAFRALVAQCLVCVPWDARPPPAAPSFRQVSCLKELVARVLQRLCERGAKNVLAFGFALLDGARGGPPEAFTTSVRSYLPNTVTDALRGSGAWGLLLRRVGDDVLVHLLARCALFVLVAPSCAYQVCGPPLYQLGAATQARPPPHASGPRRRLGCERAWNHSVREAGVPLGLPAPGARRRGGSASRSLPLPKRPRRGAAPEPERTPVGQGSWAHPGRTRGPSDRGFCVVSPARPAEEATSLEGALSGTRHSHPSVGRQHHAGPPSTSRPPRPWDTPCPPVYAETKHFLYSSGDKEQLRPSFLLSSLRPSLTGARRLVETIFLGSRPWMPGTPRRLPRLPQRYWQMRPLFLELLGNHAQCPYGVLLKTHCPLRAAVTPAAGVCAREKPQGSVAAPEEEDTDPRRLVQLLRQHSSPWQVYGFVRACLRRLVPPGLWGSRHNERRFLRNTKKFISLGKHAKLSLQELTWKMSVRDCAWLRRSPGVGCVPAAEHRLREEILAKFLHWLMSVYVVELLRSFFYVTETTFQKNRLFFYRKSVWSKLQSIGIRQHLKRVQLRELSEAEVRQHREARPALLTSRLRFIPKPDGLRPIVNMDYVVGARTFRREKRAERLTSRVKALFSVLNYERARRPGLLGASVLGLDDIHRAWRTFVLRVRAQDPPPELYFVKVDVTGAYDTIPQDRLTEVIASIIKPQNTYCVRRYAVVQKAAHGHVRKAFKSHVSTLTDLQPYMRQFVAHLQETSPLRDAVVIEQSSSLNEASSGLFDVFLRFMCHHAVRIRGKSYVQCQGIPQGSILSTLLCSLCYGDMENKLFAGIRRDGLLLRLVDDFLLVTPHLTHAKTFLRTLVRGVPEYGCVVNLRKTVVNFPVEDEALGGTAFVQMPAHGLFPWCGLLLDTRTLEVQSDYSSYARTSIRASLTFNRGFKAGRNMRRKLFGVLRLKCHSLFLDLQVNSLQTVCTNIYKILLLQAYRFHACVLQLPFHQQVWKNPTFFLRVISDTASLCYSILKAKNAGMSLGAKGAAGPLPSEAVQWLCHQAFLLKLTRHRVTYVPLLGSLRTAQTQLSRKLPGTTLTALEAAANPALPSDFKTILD

ΔTm (Homo sapiens [1]) [°C]	Kb (Homo sapiens [2]) [×10⁶ /M]	Kb (Homo sapiens [3]) [×10⁶ /M]	pIC50 [4]	pIC50 [5]	inhibition [6]	Drug uptake (L1210 [8])	Drug uptake (L1210 [9])	Kb (Homo sapiens [10]) [×10⁶ /M]	SMILES	pIC50 (L1210 [7])	pIC50 (CCRF-CEM)
1	0.1	2.1	5.52	6.30	Active			0.5	N=C(N)NCCNc1c2c(c(N)c3ccsc13)C(=O)c1ccccc1C2=O	4.66	4.68
0.1	0.01	1.3	5.00	4.48					Nc1c2c(c(N)c3sccc13)C(=O)c1ccccc1C2=O	< 3.60	< 3.60
1	0.2	1.6	5.70	6.05				0.6	N=C(N)NCCNc1c2c(c(N)c3sccc13)C(=O)c1ccccc1C2=O	4.72	4.80
7	2.4	8	6.33	6.52	Active			1.1	CC(=N)NCCNc1c2c(c(NCCNC(C)=N)c3sccc13)C(=O)c1ccccc1C2=O	4.44	4.41
5	1.5	12	6.10	7.00	Active			11	N=C(N)NCCNc1c2c(c(NCCN)c3sccc13)C(=O)c1ccccc1C2=O	4.80	5.15
4.3	1.1	11	6.15	6.30	Active	Active	Active	1.6	CNCCNc1c2c(c(NCCNC)c3sccc13)C(=O)c1ccccc1C2=O.Cl	6.05	

Second part, the molecule before the results:

SMILES	ΔTm (Homo sapiens [1]) [°C]	Kb (Homo sapiens [2]) [×10⁶ /M]	Kb (Homo sapiens [3]) [×10⁶ /M]	pIC50 [4]	pIC50 [5]	inhibition [6]	Drug uptake (L1210 [8])	Drug uptake (L1210 [9])	Kb (Homo sapiens [10]) [×10⁶ /M]	pIC50 (L1210 [7])	pIC50 (CCRF-CEM)
Cl.N=C(N)NCCNc1c2c(c(NCCNC(=N)N)c3sccc13)C(=O)c1ccccc1C2=O	12	7	8	6.15	7.10	Active	Active	Active		4.70	4.96
CNCCNc1c2c(c(NCCNC(=N)N)c3ccsc13)C(=O)c1ccccc1C2=O	5.4	1.6	5.5	6.22	6.52	Active			4.9	4.64	5.22
CNCCNc1c2c(c(NCCNC(=N)N)c3sccc13)C(=O)c1ccccc1C2=O	5.1	1.5	4	5.96	7.30				2.5	4.80	4.96
Cl.N=C(N)NCCNc1c2c(c(NCCCN)c3sccc13)C(=O)c1ccccc1C2=O	10	5	9	6.15	7.15	Active	Active	Active	3.7	5.00	5.00
